# Measured values from publication PMC6312196 (ChemMedChem, 2018).
# Where a chain is given by its changes, count along the chain named. Where two headings read alike, the source gives them in different places.
# How the values were obtained:
# [1] = test system: K562; test: Cellular proliferation assay; type: cell-based; details: read-out: IC50 (mean ±SD) K562
# [2] = test system: KCL22-IR; test: Cellular proliferation assay; type: cell-based; details: 72 h
# [3] = test system: KCL22; test: Cellular proliferation assay; type: cell-based; details: read-out: IC50 (mean ±SD) KCL22
# [4] = biological target: T1, ABL1 (Homo sapiens, UniProt P00519); test: Enzymatic inhibition of ABL1 wild type; type: biochemical; details: read-out: IC50 ABL1 wild type; enzyme, Figure 8A
# T1 sequence (P00519 242-493 limits assumed): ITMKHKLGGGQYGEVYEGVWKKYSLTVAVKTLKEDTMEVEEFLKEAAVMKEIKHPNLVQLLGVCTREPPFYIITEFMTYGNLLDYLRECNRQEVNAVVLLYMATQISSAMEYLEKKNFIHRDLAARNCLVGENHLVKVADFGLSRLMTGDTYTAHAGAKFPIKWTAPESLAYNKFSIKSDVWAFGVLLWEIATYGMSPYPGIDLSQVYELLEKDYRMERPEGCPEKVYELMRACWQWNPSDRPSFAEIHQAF
# [5] = biological target: T2, ABL1(T315I) (Homo sapiens, UniProt P00519, T315I); test: Enzymatic inhibition of ABL1; type: biochemical; details: read-out: IC50 ABL1(T315I); enzyme, Figure 8B
# T2 sequence (P00519 242-493 T315I limits assumed): T1 sequence (P00519 242-493 limits assumed) with T74I
# [6] = biological target: ABL1(T315I) (Homo sapiens, UniProt P00519+P11274, T315I); test: Cellular ABL1 kinase phosphorylation assay in KCL22-IR; details: read-out: IC50 (mean ±SD) cellular ABL1 activity, KCL22-IR; 2 hours incubation, KCL22-T315I cells
# [7] = cited from earlier work
# [8] = read-out: IC50 (mean ±SD) KCL22-IR, anti-proliferation, T315I mutation
compound,measurement,setting,value
Cc1ccc(C(=O)Nc2ccc(CN3CCN(C)CC3)c(C(F)(F)F)c2)cc1C#Cc1cnc(N)c2ncccc12 [Compound 9],IC50,"[1]; anti-proliferation, 72 h",1.85 ± 0.03 nM
same,IC50,[2]; [8],0.74 ± 0.004 nM
same,IC50,"[3]; anti-proliferation, 72 h",0.18 ± 0.004 nM
Cc1ncc(C(=O)Nc2ccc(CN3CCN(C)CC3)c(C(F)(F)F)c2)cc1C#Cc1cnc(N)c2ncccc12 [Compound 15],IC50,"[1]; anti-proliferation, 72 h",1.75 ± 0.04 nM
same,IC50,[2]; [8],2.67 ± 0.07 nM
same,IC50,[4],< 5 nM
same,IC50,[5],4.7 nM
same,IC50,"[3]; anti-proliferation, 72 h",0.303 ± 0.002 nM
same,IC50,[6],18.9 ± 1.1 nM
CN1CCN(Cc2ccc(NC(=O)c3cncc(C#Cc4cnc(N)c5ncccc45)c3)cc2C(F)(F)F)CC1 [Compound 16],IC50,"[1]; anti-proliferation, 72 h",0.765 ± 0.005 nM
same,IC50,[2]; [8],4.14 ± 0.11 nM
same,IC50,[4],< 5 nM
same,IC50,[5],40.7 nM
same,IC50,"[3]; anti-proliferation, 72 h",1.02 ± 0.04 nM
same,IC50,[6],26 ± 1.1 nM
CN1CCN(Cc2ccc(NC(=O)c3cncc(C#Cc4c(N)ncc5ccc(F)cc45)c3)cc2C(F)(F)F)CC1 [Compound 29],IC50,"[1]; anti-proliferation, 72 h",0.688 ± 0.003 nM
same,IC50,[2]; [8],4.1 ± 0.03 nM
same,IC50,[4],< 5 nM
same,IC50,[5],32.8 nM
same,IC50,"[3]; anti-proliferation, 72 h",0.444 ± 0.008 nM
same,IC50,[6],36.4 ± 1.1 nM
"Cc1ccc(NC(=O)c2ccc(CN3CCN(C)CC3)cc2)cc1Nc1nccc(-c2cccnc2)n1 [Imatinib, reference compound]",IC50,[2]; read-out: IC50 KCL22-IR (bound cells),> 1000 nM
"Cc1ccc(C(=O)Nc2ccc(CN3CCN(C)CC3)c(C(F)(F)F)c2)cc1C#Cc1cnc2cccnn12 [Ponatinib, reference compound]",IC50,"[1]; Homo sapiens, K562, 72 h",0.6003 ± 0.0023 nM
same,IC50,[2]; read-out: IC50 (mean ±SD) KCL22-IR,0.66 ± 0.005 nM
same,patients reporting serious and non-serious thrombotic events,"[7]; cardiovascular, cerebrovascular, peripheral vascular events",17.1%
same,deaths linked to the use of the drug,[7]; study n=499,Five
same,IC50,"[3]; Homo sapiens, KCL-22, 72 h",0.142 ± 0.003 nM
